Marks after values point to notes of the source that are not given here.
Legend:
[1] = target: T1, full length RORγt (Homo sapiens, UniProt P51449); test: Full-length RORγt co-transfection with IL17-Luc reporter in HEK293T cells; format: cell-based; conditions: 2 μM ursolic acid
T1 construct: full length RORγt was co-transfected along with a luciferase reporter; expressed in transfected cells; host or cells: HEK293T
T1 sequence (P51449 1-497 isoform P51449-2): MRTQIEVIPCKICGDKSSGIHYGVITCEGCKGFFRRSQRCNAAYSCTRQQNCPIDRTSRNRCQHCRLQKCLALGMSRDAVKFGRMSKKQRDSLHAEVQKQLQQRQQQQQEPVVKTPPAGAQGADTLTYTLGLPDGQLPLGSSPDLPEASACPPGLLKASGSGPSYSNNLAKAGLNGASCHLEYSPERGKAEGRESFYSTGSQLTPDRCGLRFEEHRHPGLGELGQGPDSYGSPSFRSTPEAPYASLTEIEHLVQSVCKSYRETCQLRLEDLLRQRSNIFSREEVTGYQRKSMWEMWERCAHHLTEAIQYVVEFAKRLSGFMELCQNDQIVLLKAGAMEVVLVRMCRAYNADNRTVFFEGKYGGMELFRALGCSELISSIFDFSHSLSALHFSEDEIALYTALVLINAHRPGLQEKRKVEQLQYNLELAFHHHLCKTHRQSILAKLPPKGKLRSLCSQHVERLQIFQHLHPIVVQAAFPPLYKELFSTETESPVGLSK
Source text: In order to determine if these compounds could modulate RORγt activity in the context of the full-length receptor, we used a co-transfection system in HEK293T cells in which full length RORγt was co-transfected along with a luciferase reporter under the control of either a basic promoter containing five copies of an ROR response element (5×RORE) or a minimal IL17 promoter.

[2] = target: T2, RORγt LBD (Homo sapiens, UniProt P51449); test: Differential HDX-MS of RORγt LBD ± compounds; format: binding
T2 construct: 5 μL of a 10 μM RORγt LBD solution (Apo or in complex with 10-excess compound)
T2 sequence (P51449 269-508 limits assumed): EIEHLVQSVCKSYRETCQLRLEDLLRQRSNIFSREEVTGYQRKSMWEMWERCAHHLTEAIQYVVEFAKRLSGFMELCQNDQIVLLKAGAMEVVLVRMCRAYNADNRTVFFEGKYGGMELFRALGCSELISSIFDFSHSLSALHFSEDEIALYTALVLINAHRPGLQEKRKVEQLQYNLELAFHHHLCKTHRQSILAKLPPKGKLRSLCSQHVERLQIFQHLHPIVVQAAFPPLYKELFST
Source text: While the mechanism of action of RORγt agonists on regulation of the immune checkpoint receptor PD-1 is unclear, a correlation between RORγt and PD-1 expression has been observed in PD-1 knockout mice Z Regardless, to gain insights into the structural mechanism for agonist activity we examined the impact of putative agonist ligands on the conformational dynamics of RORγt. To achieve this, we utilized differential hydrogen/deuterium exchange (HDX) mass spectrometry.
HDX-MS. Solution-phase amide HDX was performed with a fully automated system as described previously with minor modifications^30,31. For differential HDX experiments, 5 μL of a 10 μM RORγt LBD solution (Apo or in complex with 10-excess compound) was diluted to 25 μL with D20-containing HDX buffer, and incubated at 4° C. for; 10 s, 30s, 60s, 900s, and 3,600s, Following on-exchange, unwanted forward or back exchange is minimized and the protein is denatured by dilution to 50 μL with 0.1% TFA in 3M urea (held at 4° C., pH 2.5). Samples are then passed across an immobilized pepsin column (prepared in house) at 50 μL min−1 (0.1% TFA, 15° C.) and the resulting peptides are trapped onto a Ce trap cartridge (Thermo Fisher, Hypersil Gold). Peptides were then gradient eluted (4% CH3CN to 40% CH3CN, 0,3% formic acid over 5 minutes, 4° C.) across a 1 mm×50 mm Cia HPLC column (Hypersil Gold, Thermo Fisher) and electrosprayed directly into a high resolution orbitrap mass spectrometer (Exactive, Thermo Fisher). Percent deuterium exchange values for peptide isotopic envelopes at each time point were calculated and processed using HDX Workbench^32 and overlaid onto RORγt crystal structures using pyMOL (DeLano Scientific). HDX data is presented as an average of three individual replicates across […] time points (10s, 60s, 300s, 900s, and 3600s).

[3] = target: T3, Gal4-RORγ (Homo sapiens, UniProt P51449); test: cell-based; conditions: HEK-293T, read-out: fold induction of reporter gene expression
T3 sequence (P51449 269-508 limits assumed): T2 sequence (P51449 269-508 limits assumed)

[4] = target: T3, Gal4-RORγ; parameters: RORγt activity after pre-treatment; fold induction of reporter gene expression; other: single concentration 30 μM; induction of luciferase expression at highest concentration of the concentration response curve; other: 30 μM, 2 μM urs; luciferase reporter gene expression; conditions: recently identified putative endogenous agonist; cited from earlier work

CC(C)=CCC[C@@H](C)[C@H]1CC[C@H]2[C@@H]3CC=C4C[C@@H](O)CC[C@]4(C)[C@H]3CC[C@]12C [desmosterol]
reporter gene expression, IL17 promoter [1]: minimal induction of the reporter gene
Differential HDX kinetics, peptide TEIEHLVQSVC ([2]; 268-278, charge 2, H1): −1(4)*
Differential HDX kinetics, peptide TEIEHLVQSVCXS ([2]; 268-280, charge 3, H1): 0(5)*
Differential HDX kinetics, peptide TEIEHLVQSVCKSYRETCQ ([2]; 268-286, charge 2, H1): −5(3)
Differential HDX kinetics, peptide LRLEDL ([2]; 287-292, charge 2, H2): −5(4)*
Differential HDX kinetics, peptide RLEDLL ([2]; 288-293, charge 2, H2): −6(3)
Differential HDX kinetics, peptide RLEDLLRQRSNIFSRE ([2]; 288-303, charge 4, H2/H3): −10(4)
Differential HDX kinetics, peptide WERCAHHLTEAIQ ([2]; 317-329, charge 2, H4): −5(1)*
Differential HDX kinetics, peptide WERCAHHTEAIQY ([2]; 317-330, charge 3, H4): −4(1)*
Differential HDX kinetics, peptide WEGAKRLSGF ([2]; 331-341, charge 2, H4/H5): −1(1)*
Differential HDX kinetics, peptide AKRLSGF ([2]; 335-341, charge 2, H4/H5): −1(2)*
Differential HDX kinetics, peptide CQNDQVL ([2]; 345-352, charge 1, H5/H6): 0(1)*
Differential HDX kinetics, peptide VRMCRAYNAENRTVF ([2]; 363-377, charge 3, H6/B1): −7(2)
Differential HDX kinetics, peptide CRAYCAONRTVF ([2]; 366-377, charge 2, B1): −5(2)
Differential HDX kinetics, peptide FEGKYGGMEL ([2]; 373-387, charge 2, B2/H7): −6(3)
Differential HDX kinetics, peptide FRALGCSE ([2]; 386-398, charge 2, H7/H8): −4(3)*
Differential HDX kinetics, peptide LISSIFDFSHSLSAL ([2]; 395-410, charge 2, H8): −4(2)*
Differential HDX kinetics, peptide ISSIFD ([2]; 397-402, charge 1, H8): −4(2)*
Differential HDX kinetics, peptide ISSIFDFSHSL ([2]; 397-407, charge 2, H8): −4(2)*
Differential HDX kinetics, peptide ISSIFDSHSLSAL ([2]; 397-410, charge 2, H8): −4(2)*
Differential HDX kinetics, peptide DFSHSLSAL ([2]; 402-410, charge 1, H8): −5(3)
Differential HDX kinetics, peptide FSHSLSAL ([2]; 403-410, charge 2, H8): −4(3)*
Differential HDX kinetics, peptide HFSEDEIAL ([2]; 411-419, charge 2, H9): −1(1)*
Differential HDX kinetics, peptide LAFHHHLCKTHRQSL ([2]; 448-463, charge 4, H10): −3(2)*
Differential HDX kinetics, peptide AKLPFXGKLRSLCSQ ([2]; 464-478, charge 3, H11): −12(4)
Differential HDX kinetics, peptide HVERLQFQHLHPIVVQ ([2]; 479-495, charge 2, H11): −12(4)
Differential HDX kinetics, peptide QFQHLHPIVVQ ([2]; 484-495, charge 2, H11): −6(4)*
Differential HDX kinetics, peptide AAFPPLYXEL ([2]; 495-505, charge 2, H12): −2(4)*
Differential HDX kinetics, peptide AAFPPLYZELF ([2]; 496-506, charge 2, H12): −3(3)*
HDX kinetics in helix 12 (H12) ([2]; RORγt LBD ± compound): No statistically significant change in HDX kinetics
Differential HDX kinetics, peptide TEIEHLVQ ([2]; charge 2, H1, percent deuterium exchange difference): −2(5)*
fold induction at 30 µM [3]: ≥ 2
restoring RORγt activity in the presence of ursolic acid [4]: capable of restoring RORγt activity in the presence of ursolic acid

Source: US20240245633A1, “ROR Gamma Agonists as Enhancers of Protective Immunity” (University of Florida Research Foundation, Incorporated, priority 2015, published 2024)
